Drawing on patent publication US20240174690A1, “ANNULATED 2-AMINO-3-CYANO THIOPHENES AND DERIVATIVES FOR THE TREATMENT OF CANCER” (BOEHRINGER INGELHEIM INTERNATIONAL GMBH, priority 2021, published 2024), this text covers IC50 for 16 compounds.

One test deals with A375 cells. The experiment in a line: A375 CTG proliferation assay (120 h) (melanoma, wt, B-Raf mutant, negative control). Conditions: Homo sapiens, A-375, CTG 120 h. In kind it is cell-based. On the procedure:
A375 CTG Proliferation Assay (120 h) (Melanoma, Wt, B-Raf Mutant, Negative Control)
A375 cells (ATCC CRL-1619) are dispensed into 384-well plates, flat and clear bottom (Greiner, PNr. 781091) at a density of 300 cells per well in 60 μL DMEM (Sigma 06429)+10% Fetal Calf Serum (HyClone, PNr.: SH30084.03) and incubated at 37° C. in a CO2 incubator overnight. The next day, compounds (10 mM stock in DMSO) are added at logarithmic dose series using the HP Digital Dispenser D300 (Tecan), including DMSO controls. Plates are incubated for 120 h, and cell viability is measured using CellTiter-Glo luminescent cell viability reagent (Promega product code G7570). Viability (stated as percent of control) is defined as relative luminescence units RLU of each well divided by the RLU of cells in DMSO controls. IC50 values are determined from viability measurements by non-linear regression using a four-parameter model.

For a further test, the target named is KRAS (G12V)::SOS1 (Homo sapiens (Human), UniProt P01116, C118S/G12V). The experiment in a line: KRAS::SOS1 AlphaScreen binding assay, KRAS G12V. An excerpt: (§1) This assay can be used to examine the potency with which compounds according to the invention binding to (mutated) KRAS inhibit the protein-protein interaction between SOS1 and (mutated) KRAS e.g., KRAS WT, KRAS G12C, KRAS G12D, KRAS G12V, KRAS G13D. […] Low IC50 values in this assay setting are indicative of strong inhibition of protein-protein interaction between SOS1 and KRAS:
(§2) These assays measure the inhibitory effect of compounds on KRAS mutant protein-protein interactions using the Alpha Screen technology by Perkin Elmer.
(§3) The following (mutant) enzyme forms of KRAS and interacting proteins are used in these assays at the given concentrations: • KRAS (G12D) 1-169, N-terminal 6His-tag, C-terminal avi-tag (Xtal BioStructures, Inc.); final assay concentration 10 nM and SOS1 564-1049, N-terminal 229 GST-tag, TEV cleavage site (Viva Biotech Ltd); final assay concentration 5 nM; • KRAS (G12C) 1-169, N-terminal 6His-tag for purification, cleaved off, C-terminal avi-tag, biotinylated, mutations: C51S, C80L, C118S (in house); final assay concentration 7.5 nM and SOS1 564-1049, N-terminal 229 GST-tag, TEV cleavage site (Viva Biotech Ltd); final assay concentration 5 nM; • KRAS (G12V) 1-169, N-terminal 6His-tag for purification, cleaved off, C-terminal avi-tag, biotinylated, TEV cleavage site, mutation: C118S, GDP loaded (in house); final assay concentration 10 nM and SOS1 564-1049, N-terminal 229 GST-tag, TEV cleavage site (Viva Biotech Ltd); final assay concentration 10 nM; • KRAS (G13D) 1-169, N-terminal 6His-tag for purification, cleaved off, C-terminal avi-tag, biotinylated, TEV cleavage site, mutation: C118S, GDP loaded (in house); final assay concentration 10 nM and SOS1 564-1049, N-terminal 229 GST-tag, TEV cleavage site (Viva Biotech Ltd); final assay concentration 10 nM; • KRAS (WT) 1-169, N-terminal 6His-tag for purification, cleaved off, C-terminal avi-tag, biotinylated, TEV cleavage site, mutation: C118S, GDP loaded (in house); final assay concentration 10 nM and SOS1 564-1049, N-terminal 229 GST-tag, TEV cleavage site (Viva Biotech Ltd); final assay concentration 10 nM.
(§4) Test compounds dissolved in DMSO are dispensed onto assay plates (Proxiplate 384 PLUS, white, PerkinElmer; 6008289) using an Access Labcyte Workstation with the Labcyte Echo 55×. For the chosen highest assay concentration of 100 μM, 150 nL of compound solution are transferred from a 10 mM DMSO compound stock solution. A series of eleven fivefold dilutions per compound are transferred to the assay plate, compound dilutions are tested in duplicates. DMSO are added as backfill to a total volume of 150 nL.
(§5) The assays run on a fully automated robotic system in a darkened room below 100 Lux. To 150 nl of compound dilution 10 μl of a mix including KRAS mutant protein, SOS1 (final assay concentrations see above) and GDP nucleotide (Sigma G7127; final assay concentration 10 μM) in assay buffer (1×PBS, 0.1% BSA, 0.05% Tween 20) are added into columns 1-24.
(§6) After 30 minutes incubation time 5 μl of Alpha Screen bead mix in assay buffer are added into columns 1-23. Bead mix consists of AlphaLISA Glutathione Acceptor Beads (PerkinElmer, Cat No AL109) and AlphaScreen Streptavidin Donor Beads (PerkinElmer Cat No 6760002) in assay buffer at a final assay concentration of 10 μg/ml each.
(§7) Plates are kept at room temperature in a darkened incubator. After an additional 60 minutes incubation time the signal is measured in a PerkinElmer Envision HTS Multilabel Reader using the AlphaScreen specs from PerkinElmer.
(§8) Each plate contains up to 16 wells of a negative control depending on the dilution procedure (platewise or serial) (DMSO instead of test compound; with KRAS mutant::SOS1 GDP mix and bead mix; column 23) and 16 wells of a positive control (DMSO instead of test compound; with KRAS mutant::SOS1 GDP mix w/o bead mix; column 24).
(§9) As internal control known inhibitors of KRAS mutant::SOS1 interaction can be measured on each compound plate. […]

Another test addresses KRAS (G13D)::SOS1 (Homo sapiens (Human), UniProt P01116, C118S/G13D). The test is described as follows: KRAS::SOS1 AlphaScreen binding assay, KRAS G13D.
Source text: as §1, §2, §3, §4, §5, §6, §7, §8, §9
Background: In Alpha technology, singlet oxygen from a donor bead excites a nearby acceptor bead.

KRAS (G12V)::SOS1, sequence (P01116 other isoform, or with tags, fused parts or gaps G12V/C118S): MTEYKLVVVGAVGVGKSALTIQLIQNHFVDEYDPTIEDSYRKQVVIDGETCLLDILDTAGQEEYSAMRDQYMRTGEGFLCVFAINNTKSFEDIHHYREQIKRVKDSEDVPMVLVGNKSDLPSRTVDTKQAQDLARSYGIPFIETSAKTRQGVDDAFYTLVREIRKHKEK
KRAS (G13D)::SOS1, sequence (P01116 other isoform, or with tags, fused parts or gaps G13D/C118S): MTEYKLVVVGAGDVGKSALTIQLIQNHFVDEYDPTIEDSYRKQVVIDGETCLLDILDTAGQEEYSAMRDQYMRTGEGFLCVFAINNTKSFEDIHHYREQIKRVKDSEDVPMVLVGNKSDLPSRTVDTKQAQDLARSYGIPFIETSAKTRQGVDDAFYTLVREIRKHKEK

As a reminder, the IC50 is the concentration that inhibits the measured activity by half. Low values mean inhibition by little substance, high ones a need for much substance. Take `C[C@H](Oc1cc(-n2cc(-c3cncs3)nn2)nc(-c2noc3c2CCC[C@@]32CCCc3sc(N)c(C#N)c32)n1)[C@@H]1CCCN1C` [II-125]: it took 324 nM to reach half-maximal inhibition in the test with A375 cells (IC50).
For the compound `C[C@H](Oc1cc(-n2ccc(-c3cnccn3)n2)nc(-c2noc3c2CCC[C@@]32CCCc3sc(N)c(C#N)c32)n1)[C@@H]1CCCN1C` [II-130], the results for the IC50 with A375 cells and at KRAS (G12V)::SOS1 were 1310 nM and 2 nM, respectively.
Consider `C[C@H](Oc1cc(-c2cccc(C(N)=O)c2)nc(-c2noc3c2CCC[C@@]32CCCc3sc(N)c(C#N)c32)n1)[C@@H]1CCCN1C` [II-133], for which the IC50 was found to be 1380 nM in the test on A375 cells and 2 nM at KRAS (G12V)::SOS1.
Turning to `C[C@H](Oc1cc(N2CCOC2=O)nc(-c2noc3c2CCC[C@@]32CCCc3sc(N)c(C#N)c32)n1)[C@@H]1CCCN1C` [II-143], in the test with A375 cells, the IC50 was above 3000 nM.
Take `C[C@H](Oc1cc(N2CCN(C)C3(COC3)C2)nc(-c2noc3c2CCC[C@@]32CCCc3sc(N)c(C#N)c32)n1)[C@@H]1C[C@@H](F)CN1C` [II-148]: the half-inhibitory concentration (IC50) on KRAS (G12V)::SOS1 was 3 nM.
Take `C[C@H](Oc1cc(N2CCNC3(CC3)C2)nc(-c2noc3c2CCC[C@@]32CCCc3sc(N)c(C#N)c32)n1)[C@@H]1C[C@@H](F)CN1C` [II-165]: the IC50 is 15 nM on KRAS (G12V)::SOS1 and 48 nM on KRAS (G13D)::SOS1.
Take `C[C@H](Oc1cc(N2CCN(C)C3(CC3)C2)nc(-c2noc3c2CCC[C@@]32CCCc3sc(N)c(C#N)c32)n1)[C@@H]1CCCN1C` [II-171]: the IC50 came to 50 nM at KRAS (G12V)::SOS1 and 64 nM on KRAS (G13D)::SOS1.
At KRAS (G13D)::SOS1, `CC(C)NC(=O)Cc1ccn(-c2cc(O[C@@H](C)[C@@H]3CCCN3C)nc(-c3noc4c3CCC[C@@]43CCCc4sc(N)c(C#N)c43)n2)n1` [II-182] showed an IC50 of 8 nM.
With `CO[C@H]1CCN(C)[C@@H]1[C@H](C)Oc1cc(N2CCNC3(CC3)C2)nc(-c2noc3c2CCC[C@@]32CCCc3sc(N)c(C#N)c32)n1` [II-184], the IC50 on KRAS (G12V)::SOS1 was found to be 2 nM.
The compound `C[C@H](Oc1cc(-n2ccc(C3(O)COC3)n2)nc(-c2noc3c2CCC[C@@]32CCCc3sc(N)c(C#N)c32)n1)[C@@H]1CCCN1C` [II-189] came in with an IC50 at KRAS (G12V)::SOS1 of 3 nM.
Take `C[C@H](Oc1cc(-n2ccc(C(=O)N[C@@H]3CCOC3)n2)nc(-c2noc3c2CCC[C@@]32CCCc3sc(N)c(C#N)c32)n1)[C@@H]1CCCN1C` [II-192]: the IC50 at KRAS (G12V)::SOS1 amounted to 1 nM; on KRAS (G13D)::SOS1, 7 nM.
Consider `C[C@H](Oc1cc(-n2ccc(C(=O)N[C@H]3CCOC3)n2)nc(-c2noc3c2CCC[C@@]32CCCc3sc(N)c(C#N)c32)n1)[C@@H]1CCCN1C` [II-193], for which the IC50 on KRAS (G12V)::SOS1 turned out to be 2 nM; on KRAS (G13D)::SOS1, 9 nM.
For `COCCNC(=O)c1ccn(-c2cc(O[C@@H](C)[C@@H]3CCCN3C)nc(-c3noc4c3CCC[C@@]43CCCc4sc(N)c(C#N)c43)n2)n1` [II-195], the IC50 at KRAS (G12V)::SOS1 was determined as 1 nM; at KRAS (G13D)::SOS1, 7 nM.
With `CO[C@H]1CCN(C)[C@@H]1[C@H](C)Oc1cc(-n2ccc(C(=O)N[C@@H](C)c3ccccn3)n2)nc(-c2noc3c2CCC[C@@]32CCCc3sc(N)c(C#N)c32)n1` [II-196], the IC50 at KRAS (G12V)::SOS1 worked out at 2 nM.
As for `CO[C@H]1CCN(C)[C@@H]1[C@H](C)Oc1cc(-n2ccc(C(N)=O)n2)nc(-c2noc3c2CCC[C@@]32CCCc3sc(N)c(C#N)c32)n1` [II-201], the concentration for half-maximal inhibition (IC50) on KRAS (G13D)::SOS1 was determined as 27 nM.
At KRAS (G12V)::SOS1, `C[C@H](Oc1cc(-n2ccc(-c3cn(C4CCOCC4)nn3)n2)nc(-c2noc3c2CCC[C@@]32CCCc3sc(N)c(C#N)c32)n1)[C@@H]1CCCN1C` [II-210] displayed an IC50 of 2 nM.
